For six compounds, IC50 results are on record in ChEMBL document CHEMBL1255235, “Molecular basis for resistance of acanthamoeba tubulins to all major classes of antitubulin compounds” (Antimicrob Agents Chemother, 2008).

The term IC50 denotes the concentration that gives 50% inhibition.

The nature of assay [1]: Inhibition of tubulin in Acanthamoeba castellanii by alamar blue assay.
The nature of assay [2]: Inhibition of tubulin in Acanthamoeba polyphaga by alamar blue assay.
Assay [3] is described as follows: Inhibition of tubulin in rabbit corneal cells by alamar blue assay. The conditions noted are these: Oryctolagus cuniculus, Cornea. It counts as cell-based. For orientation: The colour change of resazurin is a common sign of viable cells or microbes.
The test system of another assay is Acanthamoeba polyphaga. The assay is described as follows: Antimicrobial activity against Acanthamoeba polyphaga. It counts as functional, organism-based.
Another assay has as its system Acanthamoeba castellanii. The assay is described as follows: Antimicrobial activity against Acanthamoeba castellanii. It counts as functional, organism-based.
The test system of another assay is Toxoplasma gondii. The assay is described as follows: Antimicrobial activity against Toxoplasma gondii. The assay is classed as functional, organism-based.
The test system of a further assay is Leishmania sp. Put plainly: Antimicrobial activity against Leishmania sp. The assay is classed as functional, organism-based.

For the compound `CCCSc1ccc2[nH]c(NC(=O)OC)nc2c1` [ALBENDAZOLE], the IC50 in assay [1] was > 47 µM; in assay [2] it was > 47 µM; in assay [3] it was 0.7 µM.
Turning to `N=C(NCCCCCCNC(=N)NC(=N)Nc1ccc(Cl)cc1)NC(=N)Nc1ccc(Cl)cc1` [CHLORHEXIDINE], the half-maximal inhibitory concentration (IC50) in the assay on Acanthamoeba polyphaga amounted to 3.12 µM; in the assay on Acanthamoeba castellanii it was 1.56 µM.
Take `COc1cc2c(c(OC)c1OC)-c1ccc(OC)c(=O)cc1[C@@H](NC(C)=O)CC2` [COLCHICINE]: the IC50 in assay [1] stood at 2.5 µM; in assay [2], 2500 µM; in assay [3] it was 2.4 µM.
Regarding `CCCN(CCC)c1c([N+](=O)[O-])cc(S(N)(=O)=O)cc1[N+](=O)[O-]` [ORYZALIN], the IC50 is > 100 µM in assay [1], > 100 µM in assay [2] and > 500 µM in assay [3].
Take `CC(=O)O[C@H]1C(=O)[C@@]2(C)[C@H]([C@H](OC(=O)c3ccccc3)[C@]3(O)C[C@H](OC(=O)[C@H](O)[C@@H](NC(=O)c4ccccc4)c4ccccc4)C(C)=C1C3(C)C)[C@]1(OC(C)=O)CO[C@@H]1C[C@@H]2O` [PACLITAXEL]: the IC50 is 1 µM in the assay with Toxoplasma gondii; > 10 µM in assay [1]; > 10 µM in assay [2]; 0.04 µM in assay [3]; 0.035 µM in the assay on Leishmania sp..
In the case of `CC[C@]1(O)C[C@@H]2CN(CCc3c([nH]c4ccccc34)[C@@](C(=O)OC)(c3cc4c(cc3OC)N(C)[C@H]3[C@@](O)(C(=O)OC)[C@H](OC(C)=O)[C@]5(CC)C=CCN6CC[C@]43[C@@H]65)C2)C1` [VINBLASTINE], the half-inhibitory concentration (IC50) turned out to be 0.68 µM in assay [1], 0.68 µM in assay [2] and 0.017 µM in assay [3].
